Measured values: patent US10807944B2, “HDAC inhibitor compounds and methods of treatment” (priority 2014, dated 2020)
Where two headings read alike, the source gives them in different places.

Experiments:
[1] = system: HepG2 cells; test: cells; details: Homo sapiens
[2] = in vivo; details: mouse, plasma, po, 80 mg/kg
[3] = system: MDA-MB-468 cells; test: Viability of MDA-MB-468 cells, with or without HDAC shRNA; details: for IC50: Homo sapiens
[4] = molecular target: HDAC11 (Homo sapiens (Human), UniProt Q96DB2); test: HDAC11 in vitro inhibition, dose response; format: biochemical; details: Table 1; read-out: Inhibitory Potency (IC50) HDAC 11
[5] = molecular target: T1, HDAC3 (Homo sapiens (Human), UniProt O15379); test: HDAC3 in vitro inhibition, dose response; format: biochemical
[6] = system: HCT116 and A549 cells; test: Acetylation of non-histone proteins by Western blotting; format: cell-based
[7] = system: MDA-MB-231 cells; details: MDA-MB-231 monolayer scratch; UF010 at 1 μM
[8] = system: NCI-60 panel of cancer cell lines; test: NCI-60 panel of cancer cell lines, cell growth; format: cell-based; details: all tested cell lines
[9] = molecular target: T2, HDAC2 (Homo sapiens (Human), UniProt Q92769); test: HDAC-2 inhibition potency, luminescence readout; format: biochemical; details: Table 6, luminescence readout
Description: (§1) Compounds were examined for their HDAC inhibitory activity and their effect on cancer cell viability (MDA-MB-231 cells).

[10] = system: MDA-MB-231 cells; test: Cell cycle analysis by FACS; format: cell-based; details: MDA-MB-231, 24 h, dose-dependent
[11] = system: HepG2 cells
[12] = system: MDA-MB-231 cells; test: Cancer cell viability (CellTiter-Glo); format: cell-based; details: Homo sapiens, MDA-MB-231, read-out: Cancer cell (MDA-MB-231) killing IC50
[13] = molecular target: T2, HDAC2; test: HDAC2 in vitro inhibition, dose response; format: biochemical
[14] = molecular target: T3, HDAC1 (Homo sapiens (Human), UniProt Q13547); test: In vitro HDAC1 inhibition of HTS hits (HDAC I/II-Glo reagents); format: biochemical; details: HTS follow-up
[15] = system: HCT116 cells; test: H3K18ac after 6 h pulse treatment and drug washout; format: cell-based
[16] = molecular target: HDAC9 (Homo sapiens (Human), UniProt Q9UKV0); test: HDAC9 in vitro inhibition, dose response; format: biochemical; details: Table 1; read-out: Inhibitory Potency (IC50) HDAC 9
[17] = mouse, in vivo, po
[18] = molecular target: T1, HDAC3; test: HDAC-3 inhibition potency, luminescence readout; format: biochemical; details: Table 6, luminescence readout
[19] = system: HCT116 cells; test: Histone acetylation by Western blotting; format: cell-based
[20] = molecular target: HDAC5 (Homo sapiens (Human), UniProt Q9UQL6); test: HDAC5 in vitro inhibition, dose response; format: biochemical; details: Table 1; read-out: Inhibitory Potency (IC50) HDAC 5
[21] = molecular target: T3, HDAC1; test: HDAC-1 inhibition potency, luminescence readout; format: biochemical; details: Table 6, luminescence readout
Description: as §1

[22] = Oral tolerability / maximal tolerated dose in mice; details: mouse
[23] = molecular target: HDAC8 (Homo sapiens (Human), UniProt Q9BY41); test: HDAC8 in vitro inhibition, dose response; format: biochemical
[24] = molecular target: HDAC4 (Homo sapiens (Human), UniProt P56524); test: HDAC4 in vitro inhibition, dose response; format: biochemical; details: Table 1; read-out: Inhibitory Potency (IC50) HDAC 4
[25] = molecular target: HDAC6 (Homo sapiens (Human), UniProt Q9UBN7); test: HDAC6 in vitro inhibition, dose response; format: biochemical
[26] = molecular target: HDAC7 (Homo sapiens (Human), UniProt Q8WUI4); test: HDAC7 in vitro inhibition, dose response; format: biochemical; details: Table 1; read-out: Inhibitory Potency (IC50) HDAC 7
[27] = molecular target: HDAC10 (Homo sapiens (Human), UniProt Q969S8); test: HDAC10 in vitro inhibition, dose response; format: biochemical; details: Table 1; read-out: Inhibitory Potency (IC50) HDAC 10
[28] = system: CDKN1A; test: qPCR of CDKN1A encoding p21; format: cell-based; details: MDA-MB-231
[29] = molecular target: T3, HDAC1; test: HDAC1 in vitro inhibition, dose response; format: biochemical

T1 sequence (O15379 whole entry): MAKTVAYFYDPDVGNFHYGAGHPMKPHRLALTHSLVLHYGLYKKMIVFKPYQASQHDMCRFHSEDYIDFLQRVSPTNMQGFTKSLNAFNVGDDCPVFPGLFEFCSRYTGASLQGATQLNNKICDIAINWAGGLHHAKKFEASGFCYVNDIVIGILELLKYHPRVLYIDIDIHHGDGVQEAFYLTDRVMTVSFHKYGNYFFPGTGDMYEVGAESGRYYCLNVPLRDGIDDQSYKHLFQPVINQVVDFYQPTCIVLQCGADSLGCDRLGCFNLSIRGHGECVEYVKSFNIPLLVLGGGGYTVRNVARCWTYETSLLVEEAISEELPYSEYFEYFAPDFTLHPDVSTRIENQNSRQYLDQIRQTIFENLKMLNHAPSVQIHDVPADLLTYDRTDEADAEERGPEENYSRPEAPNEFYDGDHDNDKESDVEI
T1 sequence (Q9Y618 395-489 partner): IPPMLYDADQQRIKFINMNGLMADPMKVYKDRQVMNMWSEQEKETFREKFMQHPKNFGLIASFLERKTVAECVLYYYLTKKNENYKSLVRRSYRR
T3 sequence (Q13547 whole entry): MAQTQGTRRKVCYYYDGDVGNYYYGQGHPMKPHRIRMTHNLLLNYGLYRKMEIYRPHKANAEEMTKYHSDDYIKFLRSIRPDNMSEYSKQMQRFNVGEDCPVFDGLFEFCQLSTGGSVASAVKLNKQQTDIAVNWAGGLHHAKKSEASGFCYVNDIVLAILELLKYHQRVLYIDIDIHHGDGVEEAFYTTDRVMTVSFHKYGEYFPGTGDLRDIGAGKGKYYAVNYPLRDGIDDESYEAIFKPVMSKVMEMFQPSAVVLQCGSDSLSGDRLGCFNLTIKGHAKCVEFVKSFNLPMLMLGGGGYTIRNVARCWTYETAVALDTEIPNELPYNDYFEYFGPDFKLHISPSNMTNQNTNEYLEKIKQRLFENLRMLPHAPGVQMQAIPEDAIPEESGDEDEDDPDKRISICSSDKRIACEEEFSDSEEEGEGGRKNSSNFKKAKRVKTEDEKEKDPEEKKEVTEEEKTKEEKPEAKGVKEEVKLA
T2 sequence (Q92769 whole entry): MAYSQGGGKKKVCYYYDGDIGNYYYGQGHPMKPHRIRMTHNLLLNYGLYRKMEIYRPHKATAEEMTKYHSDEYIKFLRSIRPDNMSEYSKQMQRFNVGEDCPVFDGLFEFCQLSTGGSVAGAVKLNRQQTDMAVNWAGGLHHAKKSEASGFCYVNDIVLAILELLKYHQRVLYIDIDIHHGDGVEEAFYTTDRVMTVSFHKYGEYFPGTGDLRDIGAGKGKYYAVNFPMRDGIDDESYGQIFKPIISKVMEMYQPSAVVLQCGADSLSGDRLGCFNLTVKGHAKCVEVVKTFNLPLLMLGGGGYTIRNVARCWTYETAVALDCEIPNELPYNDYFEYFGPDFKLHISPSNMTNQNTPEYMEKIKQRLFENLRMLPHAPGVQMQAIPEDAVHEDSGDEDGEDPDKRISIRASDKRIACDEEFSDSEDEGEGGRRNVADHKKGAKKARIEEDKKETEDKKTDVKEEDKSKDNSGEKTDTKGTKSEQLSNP
HDAC6, sequence (Q9UBN7 whole entry): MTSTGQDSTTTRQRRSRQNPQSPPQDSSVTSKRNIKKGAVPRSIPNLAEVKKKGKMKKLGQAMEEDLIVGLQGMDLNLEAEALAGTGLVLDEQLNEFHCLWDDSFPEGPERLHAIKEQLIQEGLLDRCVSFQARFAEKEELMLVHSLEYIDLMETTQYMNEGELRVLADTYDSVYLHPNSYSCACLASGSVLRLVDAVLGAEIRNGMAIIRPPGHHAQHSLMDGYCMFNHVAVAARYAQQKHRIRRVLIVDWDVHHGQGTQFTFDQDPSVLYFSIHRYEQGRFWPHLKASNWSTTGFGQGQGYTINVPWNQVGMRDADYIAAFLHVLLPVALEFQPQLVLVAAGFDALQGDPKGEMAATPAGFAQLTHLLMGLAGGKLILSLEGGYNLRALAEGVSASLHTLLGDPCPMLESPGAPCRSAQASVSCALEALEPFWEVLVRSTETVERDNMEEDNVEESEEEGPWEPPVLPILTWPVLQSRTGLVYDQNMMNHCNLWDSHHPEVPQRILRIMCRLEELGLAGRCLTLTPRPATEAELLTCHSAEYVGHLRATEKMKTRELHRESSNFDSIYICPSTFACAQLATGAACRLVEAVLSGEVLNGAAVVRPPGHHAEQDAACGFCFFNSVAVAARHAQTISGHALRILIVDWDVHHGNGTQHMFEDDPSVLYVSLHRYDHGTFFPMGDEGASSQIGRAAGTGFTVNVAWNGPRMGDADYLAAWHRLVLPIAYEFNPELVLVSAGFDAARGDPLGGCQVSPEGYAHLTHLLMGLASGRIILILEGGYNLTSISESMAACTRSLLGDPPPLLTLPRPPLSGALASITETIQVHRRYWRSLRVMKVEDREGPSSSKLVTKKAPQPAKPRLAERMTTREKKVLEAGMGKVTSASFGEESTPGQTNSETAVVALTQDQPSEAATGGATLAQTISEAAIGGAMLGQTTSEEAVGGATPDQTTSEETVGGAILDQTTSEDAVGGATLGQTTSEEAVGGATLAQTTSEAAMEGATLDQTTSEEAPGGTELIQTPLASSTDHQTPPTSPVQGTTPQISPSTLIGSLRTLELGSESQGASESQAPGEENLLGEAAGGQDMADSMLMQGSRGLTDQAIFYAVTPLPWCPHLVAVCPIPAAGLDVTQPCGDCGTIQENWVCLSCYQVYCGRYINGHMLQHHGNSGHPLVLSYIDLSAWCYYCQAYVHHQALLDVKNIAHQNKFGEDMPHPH
HDAC8, sequence (Q9BY41 whole entry): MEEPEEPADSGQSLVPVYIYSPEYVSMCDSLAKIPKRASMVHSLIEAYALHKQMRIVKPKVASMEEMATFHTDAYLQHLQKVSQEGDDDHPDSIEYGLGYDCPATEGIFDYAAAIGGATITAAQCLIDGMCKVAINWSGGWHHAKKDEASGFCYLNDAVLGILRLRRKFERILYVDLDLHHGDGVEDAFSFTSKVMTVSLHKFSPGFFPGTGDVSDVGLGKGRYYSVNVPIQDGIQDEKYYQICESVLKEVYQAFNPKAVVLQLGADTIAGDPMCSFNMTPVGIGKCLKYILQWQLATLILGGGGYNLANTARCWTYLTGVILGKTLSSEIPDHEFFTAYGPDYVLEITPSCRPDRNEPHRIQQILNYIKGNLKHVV
HDAC9, sequence (Q9UKV0 whole entry): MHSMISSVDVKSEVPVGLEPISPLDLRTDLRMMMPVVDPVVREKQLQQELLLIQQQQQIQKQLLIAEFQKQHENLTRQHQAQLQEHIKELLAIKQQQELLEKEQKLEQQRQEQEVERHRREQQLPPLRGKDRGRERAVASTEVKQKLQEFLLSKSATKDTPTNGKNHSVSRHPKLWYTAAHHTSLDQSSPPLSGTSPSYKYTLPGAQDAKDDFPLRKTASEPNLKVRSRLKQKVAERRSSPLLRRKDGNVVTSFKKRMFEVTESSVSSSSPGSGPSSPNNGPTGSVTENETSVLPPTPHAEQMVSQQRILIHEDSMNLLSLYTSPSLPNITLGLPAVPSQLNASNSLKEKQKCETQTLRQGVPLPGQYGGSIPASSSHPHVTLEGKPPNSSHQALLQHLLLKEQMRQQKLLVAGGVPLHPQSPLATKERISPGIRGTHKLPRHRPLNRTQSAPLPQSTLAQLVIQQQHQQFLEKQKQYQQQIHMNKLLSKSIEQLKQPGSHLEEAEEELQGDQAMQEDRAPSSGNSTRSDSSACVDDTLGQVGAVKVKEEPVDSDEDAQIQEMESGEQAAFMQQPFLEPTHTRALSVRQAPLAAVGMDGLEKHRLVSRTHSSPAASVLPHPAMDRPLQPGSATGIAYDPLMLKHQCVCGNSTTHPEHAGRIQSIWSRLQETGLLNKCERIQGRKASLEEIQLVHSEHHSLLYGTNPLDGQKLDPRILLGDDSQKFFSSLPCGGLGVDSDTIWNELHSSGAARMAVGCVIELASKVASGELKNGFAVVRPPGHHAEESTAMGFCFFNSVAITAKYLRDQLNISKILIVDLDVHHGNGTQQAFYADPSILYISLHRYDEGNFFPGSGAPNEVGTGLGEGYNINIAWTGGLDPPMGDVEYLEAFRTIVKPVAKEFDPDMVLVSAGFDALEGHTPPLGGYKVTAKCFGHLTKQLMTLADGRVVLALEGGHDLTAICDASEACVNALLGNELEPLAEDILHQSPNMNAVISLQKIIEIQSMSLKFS
HDAC10, sequence (Q969S8 whole entry): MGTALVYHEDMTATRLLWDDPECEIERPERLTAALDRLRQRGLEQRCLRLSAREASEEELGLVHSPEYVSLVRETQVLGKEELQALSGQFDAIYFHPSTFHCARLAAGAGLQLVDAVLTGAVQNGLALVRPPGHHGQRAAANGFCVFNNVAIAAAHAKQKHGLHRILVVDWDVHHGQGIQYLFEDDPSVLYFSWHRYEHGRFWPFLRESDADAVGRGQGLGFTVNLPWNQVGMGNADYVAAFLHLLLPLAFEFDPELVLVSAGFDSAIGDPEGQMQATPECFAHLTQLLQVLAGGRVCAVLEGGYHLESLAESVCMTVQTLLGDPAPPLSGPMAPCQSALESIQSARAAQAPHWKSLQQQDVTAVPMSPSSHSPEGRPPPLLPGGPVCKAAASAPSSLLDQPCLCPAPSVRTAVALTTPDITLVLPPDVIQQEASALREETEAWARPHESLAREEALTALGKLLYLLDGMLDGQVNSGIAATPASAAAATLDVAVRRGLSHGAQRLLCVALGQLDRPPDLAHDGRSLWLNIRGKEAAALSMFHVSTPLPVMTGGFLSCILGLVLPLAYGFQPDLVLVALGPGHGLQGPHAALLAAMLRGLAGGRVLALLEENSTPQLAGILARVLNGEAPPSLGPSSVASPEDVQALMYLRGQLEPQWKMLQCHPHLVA

## CCCCNNC(=O)c1ccc(Br)cc1 [UF010, 4-bromo-N′-butylbenzohydrazide]
[1]; HepG2, read-out: IC50 Control
  IC50: 4.6 µM
[1]; HepG2, read-out: IC50 HDAC1 shRNA
  IC50: 5.9 µM
[1]; HepG2, read-out: IC50 HDAC2 shRNA
  IC50: 10.9 µM
[1]; HepG2, read-out: IC50 HDAC3 shRNA
  IC50: 1.3 µM
[2]
  AUC: 6.07 µM·h
  Cmax: 5.95 µM
  Tmax: 15 min
  half-life: 74.4 min
[3]; MDA-MB-468, read-out: IC50 Control
  IC50: 16.1 µM
[3]; MDA-MB-468, read-out: IC50 HDAC2 shRNA
  IC50: 32.8 µM
[3]; MDA-MB-468
  reduction of cytotoxic potency by HDAC2 shRNA expression: about 2 fold
[4]
  IC50: 44.5 µM
[5]; Table 1, read-out: Inhibitory Potency (IC50) HDAC 3
  IC50: 0.06 µM
[5]; Table 2, read-out: HDAC 3 IC50
  IC50: 0.06 µM
[6]; HCT116 and A549, 1 h, TSA 0.2 μM, UF010 2 μM
  α-tubulin acetylation: little to no effect
[6]; HCT116 and A549, after exposure to etoposide
  accumulation of acetylated p53: induced accumulation of acetylated p53
[6]; with or without etoposide treatment
  p53 stabilization: notably stabilized p53
[7]
  cell migration to the denuded areas: markedly slowed migration
[8]
  inhibition of proliferation, NCI-60 panel: inhibited proliferation of all tested cell lines
[9]
  IC50: 1.33 µM
[10]
  cell cycle effect: mainly blocked G1/S transition
[11]
  reduction of cytotoxic potency by HDAC2 shRNA expression: about 2 fold
[12]
  IC50: 31 µM
[13]; Table 1, read-out: Inhibitory Potency (IC50) HDAC 2
  IC50: 0.1 µM
[13]; Table 2, read-out: HDAC 2 IC50
  IC50: 0.1 µM
[14]
  potency of HDAC1 inhibition in vitro: < 10 µM
[15]; HCT116, 6 h pulse exposure
  time at which histone acetylation (H3K18ac) was induced: ≤ 6 h
[15]; HCT116, 6 h pulse then drug washout, time after drug addition
  time up to which induced acetylation was maintained: up to 96 h
[15]; HCT116, washout experiment
  mode of HDAC inhibition (on/off): fast-on but slow-off
[16]
  IC50: > 100 µM
[17]
  abnormal physical or mental behaviors: No signs
[18]
  IC50: 0.19 µM
[19]; HCT116, 0.5 μM, 24 h (FIG. 1B)
  inhibition of cellular HDACs (H4K5ac, H3K18ac): potent inhibition of cellular HDACs
[19]; HCT116, 1 h exposure, TSA 0.2 μM, others 2 μM (FIG. 1A)
  accumulation of acetylated histones: consistently induced the accumulation of acetylated histones at all sites examined
[20]
  IC50: > 100 µM
[21]
  IC50: 0.46 µM
[22]; in vivo, po, 80 mg/kg
  MTD: > 80 mg/kg
[22]; oral once daily
  MTD: >80 mg/kg
[23]; Table 1, read-out: Inhibitory Potency (IC50) HDAC 8
  IC50: 1.5 µM
[23]; Table 2, read-out: HDAC 8 IC50
  IC50: 1.5 µM
[24]
  IC50: > 100 µM
[25]; Table 1, read-out: Inhibitory Potency (IC50) HDAC 6
  IC50: 9.1 µM
[25]; Table 2, read-out: HDAC 6 IC50
  IC50: 9.1 µM
[26]
  IC50: > 100 µM
[27]
  IC50: 15.3 µM
[28]
  CDKN1A (p21) expression by quantitative real-time PCR: activation of CDKN1A
[29]; Table 1, read-out: Inhibitory Potency (IC50) HDAC 1
  IC50: 0.5 µM
[29]; Table 2, read-out: HDAC 1 IC50
  IC50: 0.5 µM
